Measurements from patent publication US6525001B1, “Substituted pyrimidine and pyridine herbicides” (Mid-American Commercialization Corporation, priority 1997, dated 2003).

Columns and labels:
Type in all cases: in vivo
[1] = system: barnyardgrass (Echinochloa crus-galli); experiment: Test A pre-/postemergence; parameters: key: 0 is no effect; 10 is complete control; conditions: 0 to 10 scale
[2] = system: crabgrass (Digitaria spp.); experiment: Test A pre-/postemergence; parameters: key: 0 is no effect; 10 is complete control; conditions: 0 to 10 scale
[3] = system: morningglory (Ipomoea spp.); experiment: Test A pre-/postemergence; parameters: key: 0 is no effect; 10 is complete control; conditions: 0 to 10 scale
[4] = system: velvetleaf (Abutilon theophrasti); experiment: Test A pre-/postemergence; parameters: key: 0 is no effect; 10 is complete control; conditions: 0 to 10 scale
[5] = system: bedstraw (Galium aparine); experiment: Test B pre-/postemergence; parameters: key: 0 is no effect; 10 is complete control
Method in brief: (§1)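 Response scores run from 0, meaning no effect, to 10, meaning complete control, assigned by eye relative to controls twelve to sixteen days after spraying. Treatment was both preemergence on planted seed and postemergence on plants at the 1- to 4-leaf stage.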

[6] = system: broadleaf signalgrass (Brachiaria decumbens); experiment: Test B pre-/postemergence; parameters: key: 0 is no effect; 10 is complete control
Method in brief: as §1

[7] = system: giant foxtail (Setaria faberii); experiment: Test B pre-/postemergence; parameters: key: 0 is no effect; 10 is complete control
Method in brief: as §1

[8] = system: momingglory (Ipomoea hederacea); experiment: Test B pre-/postemergence; parameters: key: 0 is no effect; 10 is complete control
Method in brief: as §1

[9] = system: wild oat (Avena fatua); experiment: Test B pre-/postemergence; parameters: key: 0 is no effect; 10 is complete control
Method in brief: as §1

[10] = system: cocklebur (Xanthium strumarium); experiment: Test C; parameters: key: 0 was no effect; 100 was complete control; conditions: PREEMERGENCE
[11] = system: common ragweed (Ambrosia elatior); experiment: Test C; parameters: key: 0 was no effect; 100 was complete control; conditions: PREEMERGENCE
[12] = system: corn (Zea mays); experiment: Test C; conditions: PREEMERGENCE
[13] = system: cotton (Gossypium hirsutum); experiment: Test C; parameters: key: 0 was no effect; 100 was complete control; conditions: PREEMERGENCE
[14] = system: giant foxtail (Setaria faberii); experiment: Test C; parameters: key: 0 was no effect; 100 was complete control; conditions: PREEMERGENCE
[15] = system: ladysthumb smartweed (Polygonum persicaria); experiment: Test C; conditions: PREEMERGENCE
[16] = system: surinam grass (Brachiaria decumbens); experiment: Test C; conditions: PREEMERGENCE
[17] = system: velvetleaf (Abutilon theophrasti); experiment: Test C; parameters: key: 0 was no effect; 100 was complete control; conditions: PREEMERGENCE
[18] = PRE SOIL DRENCH, Rate 2000 g/ha
[19] = postemergence SPRAYED TO RUNOFF, Rate 1000 g/ha
[20] = Preemergence, Rate 62 g/ha, scale of 0 to 10

Cc1cnc(-c2ccc(C(F)(F)F)cc2)nc1C(=O)c1ccc(C(F)(F)F)cc1 [Compound 74]
6: Plant response rating, Bedstraw ([5]; Rate 500 g/ha, Postemergence)
7: Plant response rating, Crabgrass [2, 18] | Plant response rating, Morningglory ([8]; Rate 250 g/ha, Postemergence) | Plant response rating, Morningglory ([8]; Rate 500 g/ha, Postemergence)
1: Plant response rating, Barnyardgrass [1, 18] | Plant response rating, Morningglory [3, 18] | Bedstraw plant response rating ([5]; Rate 62 g/ha, Postemergence) | Bedstraw plant response rating ([5]; Rate 125 g/ha, Postemergence) | B. signalgrass plant response rating ([6]; Rate 62 g/ha, Postemergence) | B. signalgrass plant response rating ([6]; Rate 125 g/ha, Postemergence) | Plant response rating, B. signalgrass ([6]; Rate 250 g/ha, Postemergence) | Plant response rating, Giant foxtail ([7]; Rate 250 g/ha, Postemergence) | Plant response rating, Giant foxtail ([7]; Rate 500 g/ha, Postemergence) | Morningglory plant response rating ([8]; Rate 62 g/ha, Postemergence) | Morningglory plant response rating ([8]; Rate 125 g/ha, Postemergence) | Wild oats plant response rating ([9]; Rate 62 g/ha, Postemergence) | Wild oats plant response rating ([9]; Rate 125 g/ha, Postemergence) | Plant response rating, Wild oats ([9]; Rate 250 g/ha, Postemergence) | Plant response rating, Wild oats ([9]; Rate 500 g/ha, Postemergence)
2: Plant response rating, Bedstraw ([5]; Rate 250 g/ha, Postemergence) | Plant response rating, B. signalgrass ([6]; Rate 500 g/ha, Postemergence)
8: Plant response rating, Crabgrass [2, 19]
4: Plant response rating, Velvetleaf [4, 18]
0: Plant response rating, Bedstraw [5, 20] | Plant response rating, Bedstraw ([5]; Rate 125 g/ha, Preemergence) | Plant response rating, Bedstraw ([5]; Rate 250 g/ha, Preemergence) | Plant response rating, Bedstraw ([5]; Rate 500 g/ha, Preemergence) | B. signalgrass plant response rating ([6]; Rate 62 g/ha, Preemergence) | Plant response rating, B. signalgrass ([6]; Rate 125 g/ha, Preemergence) | Plant response rating, B. signalgrass ([6]; Rate 250 g/ha, Preemergence) | Plant response rating, B. signalgrass ([6]; Rate 500 g/ha, Preemergence) | Plant response rating, Giant foxtail [7, 20] | Giant foxtail plant response rating ([7]; Rate 62 g/ha, Postemergence) | Giant foxtail plant response rating ([7]; Rate 125 g/ha, Postemergence) | Plant response rating, Giant foxtail ([7]; Rate 125 g/ha, Preemergence) | Plant response rating, Giant foxtail ([7]; Rate 250 g/ha, Preemergence) | Plant response rating, Giant foxtail ([7]; Rate 500 g/ha, Preemergence) | Plant response rating, Morningglory [8, 20] | Plant response rating, Morningglory ([8]; Rate 125 g/ha, Preemergence) | Plant response rating, Morningglory ([8]; Rate 250 g/ha, Preemergence) | Plant response rating, Morningglory ([8]; Rate 500 g/ha, Preemergence) | Plant response rating, Wild oats [9, 20] | Plant response rating, Wild oats ([9]; Rate 125 g/ha, Preemergence) | Plant response rating, Wild oats ([9]; Rate 250 g/ha, Preemergence) | Plant response rating, Wild oats ([9]; Rate 500 g/ha, Preemergence)
5: Plant response rating, Barnyardgrass [1, 19] | Plant response rating, Velvetleaf [4, 19]
10: Plant response rating, Morningglory [3, 19]

Cc1cnc(-c2ccc(C(F)(F)F)cc2)nc1Cc1cccc(C(F)(F)F)c1 [Example 1, 5-methyl-2-[4-(trifluoromethyl)phenyl]-4-[[3-(trifluoromethyl)phenyl]methyl]pyrimidine]
6: Plant response rating, B. signalgrass ([6]; Rate 125 g/ha, Postemergence)
3: Plant response rating, B. signalgrass ([6]; Rate 62 g/ha, Postemergence) | Plant response rating, Giant foxtail ([7]; Rate 62 g/ha, Postemergence)
8: Plant response rating, Morningglory [3, 18] | Bedstraw plant response rating ([5]; Rate 62 g/ha, Preemergence) | Bedstraw plant response rating ([5]; Rate 125 g/ha, Preemergence) | Plant response rating, Bedstraw ([5]; Rate 250 g/ha, Preemergence) | Plant response rating, B. signalgrass ([6]; Rate 250 g/ha, Postemergence) | Plant response rating, Morningglory ([8]; Rate 125 g/ha, Postemergence) | Wild oats plant response rating ([9]; Rate 62 g/ha, Preemergence)
25: Plant response rating, Ladysthumb ([15]; Rate 35 g/ha)
7: Plant response rating, Giant foxtail ([7]; Rate 125 g/ha, Postemergence) | Plant response rating, Wild oats ([9]; Rate 125 g/ha, Postemergence) | Plant response rating, Wild oats ([9]; Rate 250 g/ha, Postemergence)
0: Plant response rating, Cocklebur ([10]; Rate 35 g/ha) | Plant response rating, Cocklebur ([10]; Rate 70 g/ha) | Plant response rating, Cocklebur ([10]; Rate 140 g/ha)
9: Plant response rating, Barnyardgrass [1, 19] | Plant response rating, Crabgrass [2, 19] | Plant response rating, Morningglory [3, 19] | Plant response rating, Velvetleaf [4, 18] | Plant response rating, Velvetleaf [4, 19] | Plant response rating, Bedstraw ([5]; Rate 62 g/ha, Postemergence) | Plant response rating, Bedstraw ([5]; Rate 125 g/ha, Postemergence) | Plant response rating, Bedstraw ([5]; Rate 250 g/ha, Postemergence) | Plant response rating, Bedstraw ([5]; Rate 500 g/ha, Preemergence) | B. signalgrass plant response rating ([6]; Rate 62 g/ha, Preemergence) | B. signalgrass plant response rating ([6]; Rate 125 g/ha, Preemergence) | Plant response rating, B. signalgrass ([6]; Rate 250 g/ha, Preemergence) | Plant response rating, B. signalgrass ([6]; Rate 500 g/ha, Postemergence) | Plant response rating, B. signalgrass ([6]; Rate 500 g/ha, Preemergence) | Plant response rating, Giant foxtail ([7]; Rate 250 g/ha, Postemergence) | Plant response rating, Giant foxtail ([7]; Rate 500 g/ha, Postemergence) | Wild oats plant response rating ([9]; Rate 125 g/ha, Preemergence) | Plant response rating, Wild oats ([9]; Rate 250 g/ha, Preemergence) | Plant response rating, Wild oats ([9]; Rate 500 g/ha, Postemergence)
100: Plant response rating, Common ragweed ([11]; Rate 70 g/ha) | Plant response rating, Common ragweed ([11]; Rate 140 g/ha) | Plant response rating, Cotton ([13]; Rate 140 g/ha) | Plant response rating, Giant foxtail ([14]; Rate 35 g/ha) | Plant response rating, Giant foxtail ([14]; Rate 70 g/ha) | Plant response rating, Giant foxtail ([14]; Rate 140 g/ha) | Plant response rating, Velvetleaf ([17]; Rate 140 g/ha)
80: Plant response rating, Common ragweed ([11]; Rate 35 g/ha)
95: Plant response rating, Ladysthumb ([15]; Rate 140 g/ha) | Plant response rating, Surinam grass ([16]; Rate 140 g/ha)
5: Plant response rating, Corn ([12]; Rate 35 g/ha)
60: Plant response rating, Cotton ([13]; Rate 70 g/ha)
20: Plant response rating, Velvetleaf ([17]; Rate 35 g/ha)
75: Plant response rating, Velvetleaf ([17]; Rate 70 g/ha)
10: Plant response rating, Barnyardgrass [1, 18] | Plant response rating, Crabgrass [2, 18] | Plant response rating, Bedstraw ([5]; Rate 500 g/ha, Postemergence) | Giant foxtail plant response rating ([7]; Rate 62 g/ha, Preemergence) | Giant foxtail plant response rating ([7]; Rate 125 g/ha, Preemergence) | Plant response rating, Giant foxtail ([7]; Rate 250 g/ha, Preemergence) | Plant response rating, Giant foxtail ([7]; Rate 500 g/ha, Preemergence) | Morningglory plant response rating ([8]; Rate 62 g/ha, Preemergence) | Morningglory plant response rating ([8]; Rate 125 g/ha, Preemergence) | Plant response rating, Morningglory ([8]; Rate 250 g/ha, Postemergence) | Plant response rating, Morningglory ([8]; Rate 250 g/ha, Preemergence) | Plant response rating, Morningglory ([8]; Rate 500 g/ha, Postemergence) | Plant response rating, Morningglory ([8]; Rate 500 g/ha, Preemergence) | Plant response rating, Wild oats ([9]; Rate 500 g/ha, Preemergence) | Plant response rating, Corn ([12]; Rate 70 g/ha) | Plant response rating, Corn ([12]; Rate 140 g/ha)
50: Plant response rating, Surinam grass ([16]; Rate 35 g/ha)
4: Plant response rating, Morningglory ([8]; Rate 62 g/ha, Postemergence) | Plant response rating, Wild oats ([9]; Rate 62 g/ha, Postemergence)
90: Plant response rating, Ladysthumb ([15]; Rate 70 g/ha) | Plant response rating, Surinam grass ([16]; Rate 70 g/ha)
30: Plant response rating, Cotton ([13]; Rate 35 g/ha)
